{"source": "patent US12292437B2", "about": "“Fluorescence histo-tomography (FHT) systems and methods” (Emit Imaging, Inc., priority 2015, dated 2025)", "conditions": "rat, in vivo", "excerpt": "To address some of these potential drawbacks, as described above, high resolution white light and multispectral (700 and 800 nm) fluorescence images may be captured off the block after every pass of the micro- or macrotome blade using an intraoperative fluorescence imaging system, thus vastly improving the amount of information captured throughout the specimen and decreasing total acquisition time. Generally, the process of fluorescent and high resolution white light data collection and subsequent co-registration and/or three-dimensional reconstruction, is referred to herein as cryofluorescence tomography or FHT.\nTo investigate the ability of FHT to study the physiology of the brain, XenoLight RediJect 2-Deoxy-D-glucose (2-DG, PerkinElmer, 750 nm excitation), a fluorescent glucose metabolism tracer, was injected into the intrathecal space of a rat. After 1.5 hours of distribution, the animal was sacrificed, the brain tissue excised, and the sample was cryopresevered in OCT. With each pass of the microtome blade (25 micron spacing), a high resolution white light and fluorescent image was acquired.\nFurther, to study the anatomy of ventricles and subarachnoid space, a fluorescent zwitterionic compound ZW800-1 (Curadel, LLC) was injected into the rat intrathecal space. This compound is not expected to cross into the brain parenchyma due to its chemical properties. […]"}
{"substance": "XenoLight RediJect 2-Deoxy-D-glucose [2-DG]", "values": [{"measurement": "fluorescence signal in brain parenchyma", "value": "taken up in the brain parenchyma"}]}
